The record followed here is patent publication US11266634B2, “Methods for treating melanoma with human therapeutic agents” (Ankh Life Sciences Limited, priority 2014, dated 2022).

In experiment [1] the test system is ovarian cancer cells. Conditions: low doses of doxorubicin alone (up to 0.158, unit not given). The protocol: In this test, the synergism of GZ17-6.02 with doxorubicin (a common chemotherapy drug) was tested on ovarian cancer cells. In this test, increasing doses of doxorubicin were administered to ovarian cancer spheroids and cell deaths were measured, as described in Example 1. The protocol involved testing doxorubicin alone at various dosages (FIG. 8, doxorubicin alone—closed circles), with comparative tests using the various dosages of doxorubicin in combination with either 0.2 mg/mL (FIG. 8 open circles) or 0.4 mg/mL (FIG. 8 closed triangles) GZ17-6.02. Additionally, the induced cell death results from use of 0.2 mg/mL GZ17-6.02 alone (FIG. 8, line A) and 0.4 mg/mL GZ17-6.02 alone (FIG. 8, line B) were determined.

In experiment [2] the test system is human ovarian cancer cells (A1847). The experiment in a line: Ovarian cancer spheroid cell death test. The class given is cell-based. Conditions: 24 hour exposure to increasing doses; spheroids. The protocol:
(§1) The respective cells were individually cultured in a growth medium prepared using RPMI-1640 medium containing 11.1 mM D-glucose with 10% fetal bovine serum, 10 mM HEPES, 2 mM L-glutamine, 1 mM sodium pyruvate, 0.05 mM 2-mercaptoethanol, and Antibiotic-Antimycotic. These cells were maintained in T75 tissue culture flasks in a humidified incubator at 37° C. and 5% CO2. The media were changed on a third day after cell plating, and the cells were passaged on day 5 by trypsinization.
(§2) Custom-made micromolds with 100 μm diameter wells were loaded with the cells (U.S. Pat. No. 8,735,154, incorporated by reference herein). The media were changed every day by partial replacement. Cell aggregates were allowed to form in the micromolds for 72 hours and then were transferred to a 100 mm non-treated tissue culture dishes for 3 additional days. The spheroids were passed through 70 μm and 100 μm cell strainers (#3431751 and #43152, Corning, Tewksbury, Mass.) and maintained in HEPES Balanced Salt Solution comprised of: 20 mM HEPES, 114 mMNaCl, 4.7 mM KCl, 1.2 mM KH2PO4, 1.16 mM MgSO4, 2.5 mM CaCl2, 25.5 mM NaHCO3 and 0.2% bovine serum albumin (fatty acid free), pH 7.2.
(§3) The cells were treated and tested as set forth in Example 1.

In experiment [3] the test system is human prostate cancer cells (22rv1). The experiment in a line: Prostate cancer spheroid cell death test. The note with it: 24 hour exposure to increasing doses; spheroids. In kind it is cell-based. The protocol:
as §1, §2, §3

The subject of experiment [4] is human lung cancer cells (H358). The experiment in a line: Lung cancer spheroid cell death test. In kind it is cell-based. Conditions: 24 hour exposure to increasing doses; spheroids. The protocol:
as §1, §2
The lymphomas treatment methods used were identical to those described in Example 2 relative to the pediatric leukemia cells, whereas the lung cancer treatment method was the same as described in Example 1.

In the case of `COc1cccc2c1C(=O)c1c(O)c3c(c(O)c1C2=O)C[C@@](O)(C(=O)CO)C[C@@H]3O[C@H]1C[C@H](N)[C@H](O)[C@H](C)O1` [doxorubicin], the “cell death, doxorubicin alone” value in experiment [1] is recorded as “ineffective”.

On to `COc1ccc(C(=O)O)cc1O` [isovanillic acid], for which the “cell death (number of live cells)” value in experiment [2], in experiment [3] and in experiment [4] was “demonstrated anticancer effects” each time.

For the compound `CC1=NCCc2c1[nH]c1cc(O)ccc21.Cl` [harmalol hydrochloride], the “cell death (number of live cells)” value in experiment [2], in experiment [3] and in experiment [4] was “demonstrated anticancer effects” throughout.

For the compound `COc1cc(C=O)ccc1O` [vanillin], the “cell death (number of live cells)” value in experiment [2], in experiment [3] and in experiment [4] was “demonstrated anticancer effects” each time.

On to `COc1cccc(C=O)c1O` [O -vanillin], for which the “cell death (number of live cells)” value in experiment [2], in experiment [3] and in experiment [4] was “demonstrated anticancer effects” throughout.

In the case of `COc1ccc2c3c([nH]c2c1)[C@@H](C)NCC3` [tetrahydro-harmine], the “cell death (number of live cells)” value in experiment [2], in experiment [3] and in experiment [4] was “demonstrated anticancer effects” each time.

Take `COc1ccc2c3c([nH]c2c1)C(C)=NCC3` [harmaline]: the “cell death (number of live cells)” value in experiment [2], in experiment [3] and in experiment [4] was “demonstrated anticancer effects” each time.

With `COc1ccc(CO)cc1O` [isovanillyl alcohol], the “cell death (number of live cells)” value in experiment [2], in experiment [3] and in experiment [4] was “demonstrated anticancer effects” in each case.

`Cc1nccc2c1[nH]c1cc(O)ccc12.Cl` [harmole hydrochloride]: the “cell death (number of live cells)” value in experiment [2], in experiment [3] and in experiment [4] was “demonstrated anticancer effects” in each case.
